Measured values taken from publication PMC3853373 (Archives of biochemistry and biophysics, 2013).
Several values for one entry are separate records, joined by “and”; a condition that tells them apart may be missing. Equal entries are not always repeated. Where two headings read alike, the source gives them in different places.

Columns and labels:
human PNMT (hPNMT) [1] = target: T1, human PNMT (hPNMT) (Homo sapiens, UniProt P11086); test: Determination of inhibition constants and inhibition patterns for hPNMT; format: biochemical; conditions: pH 8.0, 30 °C; for Ki: read-out: Kis
T1 sequence (P11086 1-282): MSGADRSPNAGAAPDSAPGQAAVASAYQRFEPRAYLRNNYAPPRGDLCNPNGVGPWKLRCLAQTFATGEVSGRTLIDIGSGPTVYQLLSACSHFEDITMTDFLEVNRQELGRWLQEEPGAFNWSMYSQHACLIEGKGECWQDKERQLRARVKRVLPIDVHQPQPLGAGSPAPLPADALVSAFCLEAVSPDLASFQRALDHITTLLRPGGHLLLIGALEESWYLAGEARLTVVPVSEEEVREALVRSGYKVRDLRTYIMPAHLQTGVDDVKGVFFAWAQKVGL

human PNMT (hPNMT) [2] = target: T1, human PNMT (hPNMT); test: Isothermal titration calorimetry of ligand binding to hPNMT; conditions: for binding to free hPNMT: no AdoMet or AdoHcy present
human PNMT (hPNMT) [3] = target: T1, human PNMT (hPNMT); test: pH dependence of hPNMT kinetic parameters and of Ki for SK&F 29661; conditions: pH 6-10, 30 °C; fit to eq 6
human PNMT (hPNMT) [4] = target: T1, human PNMT (hPNMT); test: hPNMT initial velocity studies; format: biochemical
human PNMT (hPNMT) [5] = target: T1, human PNMT (hPNMT); conditions: pH 8.0, 30 °C; ref [30]; cited from earlier work
[6] = varied substrate AdoMet, fixed PEA 100 μM
[7] = varied substrate PEA, fixed AdoMet 5 μM

| binding to free hPNMT (human PNMT (hPNMT) [2]; ITC) | SMILES | Kii (human PNMT (hPNMT) [1]; [7]) [µM] | Kd (human PNMT (hPNMT) [2]) [µM] | pKa2 from LogV/K pH profile (human PNMT (hPNMT) [3]) | pKa3 from LogV/K pH profile (human PNMT (hPNMT) [3]) | further results |
| --- | --- | --- | --- | --- | --- | --- |
| did not bind | NC[C@H](O)c1ccc(O)c(O)c1 [NE, norepinephrine] |  | 7.2 ± 0.2 |  |  |  |
| did not bind | NCC(O)c1ccc(O)cc1 (stereo not drawn) [Octopamine, octopamine] |  | 3.3 ± 0.1 |  |  | Kia (human PNMT (hPNMT) [4]; dissociation constant from eq 1, phosphate buffer pH 8.0, 30 °C): 2.1 ± 0.2 µM; Km lower than that of PEA (human PNMT (hPNMT) [4]; ratio of Km values against PEA): 20 fold |

Second part, the compound before the results:

| SMILES | binding to free hPNMT (human PNMT (hPNMT) [2]; ITC) | Kii (human PNMT (hPNMT) [1]; [7]) [µM] | Kd (human PNMT (hPNMT) [2]) [µM] | pKa2 from LogV/K pH profile (human PNMT (hPNMT) [3]) | pKa3 from LogV/K pH profile (human PNMT (hPNMT) [3]) | further results |
| --- | --- | --- | --- | --- | --- | --- |
| Nc1ncnc2c1ncn2[C@@H]1O[C@H](CSCC[C@H](N)C(=O)O)[C@@H](O)[C@H]1O [AdoHcy, S-adenosyl-L-homocysteine] |  | 1.0 ± 0.02 |  |  |  | Ki (human PNMT (hPNMT) [1]; [6]): 0.8 ± 0.04 µM; Ki (human PNMT (hPNMT) [1]; [7]): 2.5 ± 0.28 µM |
| C[S+](CC[C@H](N)C(=O)[O-])C[C@H]1O[C@@H](n2cnc3c(N)ncnc32)[C@H](O)[C@@H]1O (stereo partly drawn) [AdoMet, S-adenosyl-L-methionine] |  |  | 4.6 ± 0.7 | 7.25 | 9.15 ± 0.12 |  |
| CNC[C@H](O)c1ccc(O)c(O)c1 [Epinephrine, epinephrine] |  | 51 ± 1.0 |  |  |  | preference for binding in presence of AdoHcy over AdoMet (human PNMT (hPNMT) [2]; ITC): 5 fold; Kii (human PNMT (hPNMT) [1]; [6]): 22 ± 0.8 µM |
| NCC(O)c1ccccc1 (stereo not drawn) [PEA, phenylethanolamine] | did not bind |  | 60 ± 2 | 8.66 and 8.66 ± 0.03 | 9.26 and 9.26 ± 0.03 | kcat (human PNMT (hPNMT) [5]): 0.0473 ± 0.00167 s⁻¹; kcat/Ka (human PNMT (hPNMT) [5]): (2.8 ± 0.2) × 10^4 M^−1 min^−1 |
